In PubChem BioAssay AID330 (DTP/NCI, 2004):
Several values for one entry are separate records, joined by “and”; a condition that tells them apart may be missing. Identical values can stand only once. Toxic doses and inconclusive results are not listed.

System: P388 leukemia ip, CD2F1 mice, survival T/C
Assay: NCI In Vivo Anticancer Drug Screen. Data for tumor model P388 Leukemia (intraperitoneal) in CD2F1 (CDF1) mice
Settings: endpoint: median survival time, higher = longer survival
Summary of the method: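 Mice carrying the transplanted tumor received test compound or vehicle. Survival was recorded in each group, and the value is the treated-group measurement divided by that of the vehicle-treated control group.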

How did the T/C (dose: 6.25 mg/kg/injection, schedule: Q01DX005 (ip), vehicle: Klucel (hydroxypropylcellulose) (HPC)) turn out when `O=[N+]([O-])c1c(Cl)nc(-c2ccccc2)nc1Cl` was run?
Its T/C is 101 % of control.

What about the T/C (dose: 12.5 mg/kg/injection, schedule: Q01DX005 (ip), vehicle: Klucel (hydroxypropylcellulose) (HPC)) of the same compound?
Its T/C is 93 % of control.

What about the T/C (dose: 25.0 mg/kg/injection, schedule: Q01DX005 (ip), vehicle: Klucel (hydroxypropylcellulose) (HPC)) of the same compound?
The T/C was 100 % of control.

`NC(CC(=O)O)C(=O)O` (configuration not stated) was tested. Which T/C (dose: 50.0 mg/kg/injection, schedule: Q01DX009 (ip), vehicle: Klucel (hydroxypropylcellulose) (HPC)) did it give?
Its T/C is 103 % of control and 105 % of control.

And the T/C (dose: 100.0 mg/kg/injection, schedule: Q01DX009 (ip), vehicle: Klucel (hydroxypropylcellulose) (HPC))?
Its T/C is 105 % of control and 91 % of control.

What about the T/C (dose: 200.0 mg/kg/injection, schedule: Q01DX009 (ip), vehicle: Klucel (hydroxypropylcellulose) (HPC)) of the same compound?
The T/C was 91 % of control.

What about the T/C (dose: 200.0 mg/kg/injection, schedule: Q01DX009 (ip), vehicle: saline) of the same compound?
The T/C was 100 % of control.

And the T/C (dose: 400.0 mg/kg/injection, schedule: Q01DX009 (ip), vehicle: saline)?
The T/C was 100 % of control.

What about the T/C (dose: 800.0 mg/kg/injection, schedule: Q01DX009 (ip), vehicle: saline) of the same compound?
The T/C was 90 % of control.

What does the source list for `CC(NNC(=S)N1CCN(c2ccccn2)CC1)c1cc2ccccc2cn1` (configuration not stated)?
T/C (dose: 12.5 mg/kg/injection, schedule: Q04DX003 (ip), vehicle: Klucel (hydroxypropylcellulose) (HPC)): 96 % of control; T/C (dose: 25.0 mg/kg/injection, schedule: Q04DX003 (ip), vehicle: Klucel (hydroxypropylcellulose) (HPC)): 88 % of control; T/C (dose: 50.0 mg/kg/injection, schedule: Q04DX003 (ip), vehicle: Klucel (hydroxypropylcellulose) (HPC)): 88 % of control; T/C (dose: 400.0 mg/kg/injection, schedule: Q04DX003 (ip), vehicle: Klucel (hydroxypropylcellulose) (HPC)): 86 % of control

For `CC[C@@]1(O)C[C@H](OC2CC(N(C)C)C(OC3CC(O)C(OC4CCC(=O)C(C)O4)C(C)O3)C(C)O2)c2c(cc3c(c2O)C(=O)c2c(O)cccc2C3=O)[C@H]1C(=O)OC` (some centres not stated), which T/C (dose: 0.5 mg/kg/injection, schedule: Q03HX008 (ip), vehicle: saline) is on record?
Its T/C is 120 % of control.

What about the T/C (dose: 1.0 mg/kg/injection, schedule: Q01DX005 (iv), vehicle: saline) of the same compound?
Its T/C is 108 % of control.

What about the T/C (dose: 1.0 mg/kg/injection, schedule: Q01DX009 (oral), vehicle: saline) of the same compound?
Its T/C is 98 % of control.

What about the T/C (dose: 1.0 mg/kg/injection, schedule: Q01DX009 (sc), vehicle: saline) of the same compound?
Its T/C is 115 % of control.

What about the T/C (dose: 1.0 mg/kg/injection, schedule: Q03HX024 (ip), vehicle: saline) of the same compound?
Its T/C is 167 % of control.

What about the T/C (dose: 1.0 mg/kg/injection, schedule: Q04DX003 (ip), vehicle: saline) of the same compound?
Its T/C is 103 % of control.

What about the T/C (dose: 1.94 mg/kg/injection, schedule: Q04DX003 (ip), vehicle: clinical formulation) of the same compound?
Its T/C is 96 % of control.

And the T/C (dose: 2.0 mg/kg/injection, schedule: Q01DX001 (iv), vehicle: saline)?
Its T/C is 105 % of control.

What about the T/C (dose: 2.0 mg/kg/injection, schedule: Q01DX005 (ip), vehicle: saline) of the same compound?
Its T/C is 167 % of control.

What about the T/C (dose: 2.0 mg/kg/injection, schedule: Q01DX005 (iv), vehicle: saline) of the same compound?
The T/C was 120 % of control.

And the T/C (dose: 2.0 mg/kg/injection, schedule: Q01DX009 (ip), vehicle: saline)?
The T/C was 168 % of control.

What about the T/C (dose: 2.0 mg/kg/injection, schedule: Q01DX009 (oral), vehicle: saline) of the same compound?
The T/C was 115 % of control.

And the T/C (dose: 2.0 mg/kg/injection, schedule: Q04DX003 (ip), vehicle: clinical formulation)?
The T/C was 117 % of control.

What about the T/C (dose: 2.0 mg/kg/injection, schedule: Q04DX003 (ip), vehicle: saline) of the same compound?
The T/C was 116 % of control and 120 % of control.

And the T/C (dose: 2.5 mg/kg/injection, schedule: Q01DX009 (ip), vehicle: saline)?
Its T/C is 180 % of control.

And the T/C (dose: 2.59 mg/kg/injection, schedule: Q04DX002 (ip), vehicle: saline)?
Its T/C is 114 % of control.

And the T/C (dose: 4.0 mg/kg/injection, schedule: Q01DX001 (iv), vehicle: saline)?
Its T/C is 116 % of control.

What about the T/C (dose: 4.0 mg/kg/injection, schedule: Q01DX005 (ip), vehicle: saline) of the same compound?
Its T/C is 189 % of control.

What about the T/C (dose: 4.0 mg/kg/injection, schedule: Q01DX005 (iv), vehicle: saline) of the same compound?
Its T/C is 162 % of control.

And the T/C (dose: 4.0 mg/kg/injection, schedule: Q01DX009 (ip), vehicle: saline)?
The T/C was 99 % of control.

What about the T/C (dose: 4.0 mg/kg/injection, schedule: Q01DX009 (sc), vehicle: saline) of the same compound?
The T/C was 153 % of control.

And the T/C (dose: 4.0 mg/kg/injection, schedule: Q03HX008 (ip), vehicle: saline)?
The T/C was 173 % of control.

And the T/C (dose: 4.0 mg/kg/injection, schedule: Q04DX003 (ip), vehicle: Klucel (hydroxypropylcellulose) (HPC))?
The T/C was 122 % of control.

And the T/C (dose: 4.32 mg/kg/injection, schedule: Q04DX002 (ip), vehicle: saline)?
The T/C was 151 % of control.

And the T/C (dose: 5.4 mg/kg/injection, schedule: Q04DX003 (ip), vehicle: clinical formulation)?
The T/C was 113 % of control.

What about the T/C (dose: 5.4 mg/kg/injection, schedule: Q04DX003 (ip), vehicle: saline) of the same compound?
The T/C was 159 % of control.

What about the T/C (dose: 6.7 mg/kg/injection, schedule: Q04DX003 (ip), vehicle: water) of the same compound?
Its T/C is 154 % of control.

And the T/C (dose: 7.2 mg/kg/injection, schedule: Q04DX002 (ip), vehicle: saline)?
Its T/C is 161 % of control.

What about the T/C (dose: 7.2 mg/kg/injection, schedule: Q04DX003 (ip), vehicle: saline) of the same compound?
The T/C was 175 % of control.

And the T/C (dose: 8.0 mg/kg/injection, schedule: Q01DX001 (oral), vehicle: saline)?
Its T/C is 110 % of control.

What about the T/C (dose: 8.0 mg/kg/injection, schedule: Q01DX009 (oral), vehicle: saline) of the same compound?
The T/C was 153 % of control.

And the T/C (dose: 8.0 mg/kg/injection, schedule: Q01DX009 (sc), vehicle: saline)?
The T/C was 95 % of control.

What about the T/C (dose: 8.0 mg/kg/injection, schedule: Q04DX003 (ip), vehicle: clinical formulation) of the same compound?
The T/C was 183 % of control.

What about the T/C (dose: 8.0 mg/kg/injection, schedule: Q04DX003 (ip), vehicle: saline) of the same compound?
The T/C was 172 % of control and 176 % of control.

What about the T/C (dose: 9.0 mg/kg/injection, schedule: Q04DX003 (ip), vehicle: clinical formulation) of the same compound?
Its T/C is 114 % of control.

And the T/C (dose: 9.0 mg/kg/injection, schedule: Q04DX003 (ip), vehicle: saline)?
The T/C was 198 % of control.

What about the T/C (dose: 10.0 mg/kg/injection, schedule: Q04DX003 (ip), vehicle: water) of the same compound?
Its T/C is 170 % of control.

What about the T/C (dose: 12.0 mg/kg/injection, schedule: Q04DX002 (ip), vehicle: saline) of the same compound?
Its T/C is 166 % of control.

And the T/C (dose: 15.0 mg/kg/injection, schedule: Q04DX003 (ip), vehicle: saline)?
Its T/C is 95 % of control.

What about the T/C (dose: 15.0 mg/kg/injection, schedule: Q04DX003 (ip), vehicle: water) of the same compound?
Its T/C is 187 % of control.

What about the T/C (dose: 16.0 mg/kg/injection, schedule: Q01DX001 (ip), vehicle: saline) of the same compound?
The T/C was 153 % of control.

What about the T/C (dose: 16.0 mg/kg/injection, schedule: Q01DX001 (oral), vehicle: saline) of the same compound?
Its T/C is 116 % of control.

And the T/C (dose: 16.0 mg/kg/injection, schedule: Q04DX003 (ip), vehicle: Klucel (hydroxypropylcellulose) (HPC))?
The T/C was 154 % of control.

And the T/C (dose: 16.0 mg/kg/injection, schedule: Q04DX003 (ip), vehicle: saline)?
Its T/C is 117 % of control.

What about the T/C (dose: 32.0 mg/kg/injection, schedule: Q01DX001 (ip), vehicle: saline) of the same compound?
The T/C was 180 % of control.

What about the T/C (dose: 32.0 mg/kg/injection, schedule: Q01DX001 (iv), vehicle: saline) of the same compound?
Its T/C is 159 % of control.

With `CN(C)CCSc1nnc(N)s1` as the compound, how does the T/C (dose: 25.0 mg/kg/injection, schedule: Q01DX001 (ip), vehicle: saline) read?
The T/C was 108 % of control.

What about the T/C (dose: 50.0 mg/kg/injection, schedule: Q01DX001 (ip), vehicle: saline) of the same compound?
Its T/C is 109 % of control.

And the T/C (dose: 100.0 mg/kg/injection, schedule: Q01DX001 (ip), vehicle: saline)?
The T/C was 105 % of control and 109 % of control.

And the T/C (dose: 200.0 mg/kg/injection, schedule: Q01DX001 (ip), vehicle: saline)?
The T/C was 94 % of control.

For `CN1CC(=O)[O][Sn]([CH3])([CH3])[O]C(=O)C1`, which T/C (dose: 7.5 mg/kg/injection, schedule: Q01DX005 (ip), vehicle: Klucel (hydroxypropylcellulose) (HPC)) is on record?
Its T/C is 119 % of control.

And the T/C (dose: 15.0 mg/kg/injection, schedule: Q01DX005 (ip), vehicle: Klucel (hydroxypropylcellulose) (HPC))?
Its T/C is 122 % of control.

What about the T/C (dose: 15.0 mg/kg/injection, schedule: Q01DX005 (ip), vehicle: saline with Tween-80) of the same compound?
The T/C was 101 % of control.

And the T/C (dose: 30.0 mg/kg/injection, schedule: Q01DX005 (ip), vehicle: Klucel (hydroxypropylcellulose) (HPC))?
Its T/C is 122 % of control.

And the T/C (dose: 30.0 mg/kg/injection, schedule: Q01DX005 (ip), vehicle: saline with Tween-80)?
Its T/C is 116 % of control.

Which T/C (dose: 50.0 mg/kg/injection, schedule: Q01DX009 (ip), vehicle: suspension in saline) does the source give for `S=C(Nc1ccc(I)cc1)SCc1ccco1` here?
Its T/C is 90 % of control.

And the T/C (dose: 100.0 mg/kg/injection, schedule: Q01DX009 (ip), vehicle: suspension in saline)?
Its T/C is 112 % of control.

What about the T/C (dose: 200.0 mg/kg/injection, schedule: Q01DX009 (ip), vehicle: suspension in saline) of the same compound?
The T/C was 109 % of control.

Which results are given for `CC1CCC23C1CC(CC(=O)C2(C)O)C3(C)C` (configuration not stated)?
T/C (dose: 60.0 mg/kg/injection, schedule: Q01DX005 (ip), vehicle: saline with Tween-80): 100 % of control; T/C (dose: 120.0 mg/kg/injection, schedule: Q01DX005 (ip), vehicle: saline with Tween-80): 97 % of control; T/C (dose: 240.0 mg/kg/injection, schedule: Q01DX005 (ip), vehicle: saline with Tween-80): 106 % of control

Which T/C (dose: 50.0 mg/kg/injection, schedule: Q01DX005 (ip), vehicle: Klucel (hydroxypropylcellulose) (HPC)) does the source give for `COc1ccc(OC)c2cc3c(cc12)C(=O)c1ccccc1C3=O` here?
Its T/C is 87 % of control.

And the T/C (dose: 100.0 mg/kg/injection, schedule: Q01DX005 (ip), vehicle: Klucel (hydroxypropylcellulose) (HPC))?
Its T/C is 88 % of control.

What about the T/C (dose: 200.0 mg/kg/injection, schedule: Q01DX005 (ip), vehicle: Klucel (hydroxypropylcellulose) (HPC)) of the same compound?
Its T/C is 91 % of control.
